Data published in US6495376B1, “Methods and compositions for regulating protein-protein interactions” (Beth Israel Deaconess Medical Center, priority 1999, dated 2002).
Where two headings read alike, the source gives them in different places.

How the values were obtained:
WFYpSPFLE (Pintide) = experiment: Fluorescence anisotropy (polarization) binding to fluorescein-labeled phosphorylated Pintide analogue; details: for Kd for Pintide (μM): fluorescein labeled Pintide, high affinity pSer-binding site in the WW-domain
From the text: To determine the affinity of Pin1, and its WW or PPIase domain for phosphopeptides, peptides were labeled with fluorescein and their interactions with Pin1 measured using quantitative fluorescence anisotrophy. To prevent nonspecific labeling, a Pintide analogue (WFYpSPFLE) SEQ ID NO: 9 was used, which binds Pin1 with a high affinity based on the peptide library screen as described by (Lu, K. P. et al., U.S. Ser. No. 60/058,164 (1997), the teachings of which are incorporated herein in their entirety.
(§1) Pintide and its nonphosphorylated counterpart were synthesized and incubated with GST-Pin1 or the GST-WW-domain of Pin1 in a binding buffer, using established procedures (Shen, M. et al., Genes & Dev 12:706 (1998)). After a 1 hr incubation, mitotic HeLa cell extracts were added and subjected to GST pull down experiments, followed by immunoblotting analysis using the MPM-2 antibody. To obtain semi-quantitative data, films of immunoblots were scanned at the region of 55 kDa, the major Pin1-binding protein, and data analyzed using ImageQuan (ScanJet II CX). The peptide binding constants were measured using a fluorescence polarization assay (Jiskoot, W. et al., Anal Biochem 196:421 (1991)). Peptides were fluorescein labeled at the N-terminus using the Fluorescein Amine Labeling Kit (Pan Vera Corp.) and purified by TLC according to the manufacturer's […]. To prevent nonspecific labeling, a Pintide analogue (WFYpSPFLE) SEQ ID NO: 8 and the nonphosphorylated control were used. Various concentrations of Pin1 and its mutant proteins were incubated with 0.1 μM of the labeled peptides in a binding buffer containing 50 mM HEPES, pH 7.4, 100 mM NaCl, 2% glycerol. Fluorescence polarization values were obtained using a Pan Vera Beacon 2000 system, as described by the manufacturer.

[1] = tested on: MPM-2 antigens (mitotic phosphoproteins) of mitotic HeLa cell extracts; experiment: GST pulldown from mitotic HeLa cell extracts, MPM-2 immunoblotting (phosphoprotein-binding activity); details: for Phosphoprotein binding activity: GST-fusion proteins with mitotic extracts, MPM2 antibody; for binding to mitotic phosphoproteins / MPM-2 antigens (in words): mitotic HeLa cell extracts
Method: GST-fusion proteins containing the WW-domain, PPIase-domain or the entire Pin 1 protein were prepared and incubated with interphase (G1/S arrested; Control) or dividing (M phase) HeLa cell extracts using well-known procedures (Lu, K. P., et al., Nature 380:544 (1996); (Shen, M., et al., Genes & Devl. 12:706 (1998)). Briefly, HeLa cells were arrested at the G1/S boundary or mitosis by incubation with thymidine and aphidicolin or nocodazole for 16 h, respectively. The cells were lysed and supernatants incubated with 10 μl of agarose beads containing GST-Pin1; GST-WW-domain of Pin1; GST-PPIase domain of Pin1; or control GST for 2 h at 4° C. The phosphorylated precipitated proteins were washed 5 times in buffer containing 1% Triton X-100 before subjecting to immunoblotting analysis using MPM-2 antibody, as described previously (Yaffe, M. B. et al., Science 278:1957 (1997); Schukowski, et al., Biochemistry 37:5566 (1998); Shen, M. et al., Genes & Dev 12:706 (1998)). MPM-2 recognizes a subset of mitotic phosphoproteins including Pin1-binding proteins such as cdc25.
as §1
To examine the effect of Pin1 phosphorylation on Pin1 binding to ligands, Pin1 and Pin1 mutant proteins were incubated with the catalytic subunit of PKA and PKC (a mixture of α, β and γ, UBI) in a kinase reaction buffer containing 500 μM cold ATP at 30° C. for 15 min (Lu, K. P. et al., Anal. Biochem. 196:421 (1991)). The reactions were stopped by adding SDS sample buffer and reaction products separated on SDS-gels, followed by autoradiography. Pin1 proteins were isolated and used to bind MPM-2 antigens from mitotic extracts from HeLa cells, as previously described (Shen, M., et al., Genes & Dev 12:706 (1998)). Experiments were also performed with PKA and PKC, casein kinase, cyclin B/Cdc2 and SRPK1 kinases.

peptide substrate = experiment: PPIase activity assay with peptide substrate; type: biochemical; details: relative to wild-type protein defined as 100%
[2] = tested on: temperature-sensitive ptf1 yeast mutant (YPM2); experiment: Rescue of temperature-sensitive ptf1 yeast mutant (in vivo function); type: cell-based; details: YPM2 cells, restrictive temperature
Method: Given the essential role of the WW-domain in conferring Pin1-binding specificity in vitro, a critical question is whether this domain is important in vivo. To address this question, experiments using the PIN1 yeast homologue, ESS1/PTF1 were performed. ESS1/PTF1 is essential for cell growth and human Pin1 can carry out this essential function when transfected into yeast cells (Lu, K. P. et al., Nature 380:544 (1996); Hanes, S. D. et al., Yeast 5:55 (1989); Hani, J. et al., FEBS Lett. 365:198 (1995)). A temperature-sensitive ptf1 mutant strain, YPM2, grows at the permissive temperature (23° C.), but not at the restrictive temperature (30° C.) (Hanes, S. D. et al., Yeast 5:55 (1989); Hani, J. et al., FEBS Lett. 365:198 (1995)). This phenotype is completely rescued by a 1.5 kb PTF1 genomic fragment, which also contains the promoter and the 3′ processing sequence (FIG. 3). To insure that all human Pin1 proteins were expressed at physiological levels under normal regulation, the coding sequence of the fully functional ESS1/PTF1 gene in a Yepvector was replaced with the coding sequence of the human PIN1 (or Pin1 mutant) cDNA (FIG. 3) and transformed into a temperature-sensitive ptf1 strain. Transformants were selected on minimal media minus Leu at the permissive temperature (23° C.) and protein expression was detected by immunoblotting analysis using 12CA5 monoclonal antibody specific for the HA epitope tag inserted at the N-terminus. […] Those strains expressing similar levels of Pin1 and Pin1 mutants were grown at permissive and nonpermissive temperature.

tau-promoted MT assembly = experiment: Microtubule assembly light-scattering assay (turbidity at 350 nm); type: biochemical; details: 0.05 mg/ml protein, 0.05 mg/ml tau
Method: The effect of Pin1 on the ability of phosphorylated tau to promote MT assembly was determined using light-scattering assays (Bramblett, G. T. et al., Neuron 10:1089-1099(1993); Alonso, A. C. et al., Proc Natl Acad Sci USA 91:5562-5566 (1994); Busciglio, J. et al., Neuron 14:879-888 (1995)). Briefly, MTs were assembled from phosphocellulose purified bovine tubulin (Cytoskeleton, Inc) and stabilized by Taxol. The nonphosphorylated or Cdc2 phosphorylated recombinant tau (0.1 mg/ml) was incubated with Pin1 (0.1 mg/ml) at 35° C. for 5 min before adding to the MTs. Bound tau was isolated by centrifugation (50,000×g) at 25° C. for 20 min, followed by immunoblotting analysis using CP27 and Pin1 antibodies. The ability of tau to promote MT assembly was determined using well established light-scattering assays. Briefly, the assembly of MTs was initiated by incubating tubulin (2 mg/ml) with or without tau (0.05 mg/ml) in 80 mM PIPES, pH 6.8, 1 mM EGTA, 1 mM MgCl2, 1 mM GTP, 20% glycerol at 35° C. for 2 min. The mixture was then transferred to a 100 μl cuvet and the rate of the MT assembly was monitored at room temperature using the turbidity increase at 350 nm. To examine the effect of Pin1, Pin1 or its mutant (0.05 mg/ml) was pre-incubated with tau or Cdc2 phosphorylated tau (0.05 mg/ml) at 35° C. for 5 min before the MT assembly assays.

WFYSPFLE = experiment: Fluorescence anisotropy binding to fluorescein-labeled nonphosphorylated control peptide; details: GST-WW-domains, N.B., not binding detected
[3] = target: EQPLpTPVTDL (Cdc25 Peptide); experiment: Fluorescence anisotropy binding to fluorescein-labeled phosphorylated Cdc25 peptide; details: GST-WW-domains
[4] = target: […] (Cdc25 Peptide, nonphosphorylated); experiment: GST-WW-domain incubated with peptide on a membrane, immunoblotting with GST antibody; type: binding
Pin1^R14A = target: T1, Pin1^R14A (Homo sapiens, UniProt Q13526, R14A); experiment: ELISA peptide binding to Pin1^R14A; details: mutant Pin1^R14A
T1 construct: mitotic HeLa cell extracts incubated with the entire Pin1 protein or its WW-domain; GST or His (N); made in house

Pin1^Y23A = target: T2, Pin1^Y23A (Homo sapiens, UniProt Q13526, Y23A); experiment: ELISA peptide binding to Pin1^Y23A; details: mutant Pin1^Y23A
T2 construct: mitotic HeLa cell extracts incubated with the entire Pin1 protein or its WW-domain; GST or His (N); made in house

Pin1 = Pin1 (Homo sapiens, UniProt Q13526); experiment: ELISA peptide binding to Pin1; details: Pin1
[5] = low affinity binding site, read-out: WFYpSPFLE Kd(μM) Low affinity

T1 sequence (Q13526 whole entry R14A): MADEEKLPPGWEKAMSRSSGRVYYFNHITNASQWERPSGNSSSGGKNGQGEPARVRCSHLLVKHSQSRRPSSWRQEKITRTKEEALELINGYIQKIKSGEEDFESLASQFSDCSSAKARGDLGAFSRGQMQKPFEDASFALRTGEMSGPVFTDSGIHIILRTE
Chain of Pin1 (Q13526 whole entry): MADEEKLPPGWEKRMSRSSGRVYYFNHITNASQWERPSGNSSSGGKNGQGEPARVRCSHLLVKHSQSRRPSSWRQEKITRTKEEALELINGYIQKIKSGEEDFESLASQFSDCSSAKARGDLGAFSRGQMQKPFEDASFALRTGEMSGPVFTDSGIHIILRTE
T2 sequence (Q13526 whole entry Y23A): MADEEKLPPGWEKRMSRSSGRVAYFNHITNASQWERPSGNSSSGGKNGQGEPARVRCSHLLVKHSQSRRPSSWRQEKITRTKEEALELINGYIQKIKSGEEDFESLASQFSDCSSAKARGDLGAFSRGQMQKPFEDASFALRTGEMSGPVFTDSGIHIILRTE
Chain of tau-promoted MT assembly (P10636 45-219 isoform P10636-2 limits assumed): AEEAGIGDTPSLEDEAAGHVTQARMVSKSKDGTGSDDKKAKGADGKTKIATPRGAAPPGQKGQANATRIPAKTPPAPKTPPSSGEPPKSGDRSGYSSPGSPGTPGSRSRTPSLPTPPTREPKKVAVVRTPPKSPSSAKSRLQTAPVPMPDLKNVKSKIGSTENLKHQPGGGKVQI

## Pin1^S16E: Pin1 with Ser-16 mutated to Glu
WFYpSPFLE (Pintide); high affinity binding site
  WFYpSPFLE Kd(μM) High affinity: no high affinity-binding site
WFYpSPFLE (Pintide); [5]
  Kd: 10.5 µM
[1]
  Phosphoprotein binding activity: −
  binding to mitotic phosphoproteins / MPM-2 antigens (in words): failed to bind mitotic phosphoproteins
Peptide substrate
  PPlase Activity (%): 95%
[2]
  complementation of temperature-sensitive ptf1 phenotype (in words): abolish the ability of Pin1 to support cell growth

## Pin1^Y23A: Pin1 with single Ala point mutation of Tyr-23 in the WW-domain
WFYpSPFLE (Pintide)
  Kd for Pintide (μM): N.B.
WFYpSPFLE (Pintide); [5]
  Kd: 13.5 µM
[1]
  Phosphoprotein binding activity: −
  binding to mitotic phosphoproteins / MPM-2 antigens (in words): completely abolished
Peptide substrate
  PPlase Activity (%): 85%
[2]
  complementation of temperature-sensitive ptf1 phenotype (in words): abolish the ability of Pin1 to support cell growth
tau-promoted MT assembly
  effect on ability of Cdc2 phosphorylated tau to promote MT assembly: did not have any effect

## Nedd4 WW-domain: GST-WW-domain of ubiquitin ligase Nedd4; text ties Table 1 to WW-domain-2
WFYpSPFLE (Pintide); GST-WW-domains, fluorescein-labeled peptide, average of three independent experiments, read-out: Kd (μM) Pintide WFYpSPFLE
  Kd: 10 µM
WFYSPFLE
  Kd (μM) Pintide nonphosphorylated WFYSPFLE: N.B.
WFYSPFLE; listed as WW-domain of Nedd4
  Kd (μM) Pintide nonphosphorylated WFYSPFLE: did not bind
[3]
  Kd: 20 µM
[4]
  Kd (μM) Cdc25 Peptide EQPLTPVTDL: N.B.*
[1]
  binding to mitotic phosphoproteins / MPM-2 antigens (in words): bound only a few MPM-2 antigens

## CC(C)[C@H](NC(=O)[C@H](C)NC(=O)[C@@H](NC(=O)[C@@H](N)CCCCN)C(C)C)C(=O)N[C@H](C(=O)N[C@@H](CCCNC(=N)N)C(=O)N[C@H](C(=O)N1CCC[C@H]1C(=O)N1CCC[C@H]1C(=O)N[C@@H](CCCCN)C(=O)N[C@@H](CO)C(=O)N1CCC[C@H]1C(=O)N[C@@H](CO)C(=O)O)[C@@H](C)OP(=O)(O)O)C(C)C [pT-231]
Pin1^R14A
  Binding (OD@405 nm), tau peptide: 1.30 OD@405 nm
Pin1^Y23A
  Binding (OD@405 nm), tau peptide: 0.00 OD@405 nm
Pin1
  Binding (OD@405 nm), tau peptides: 1.46 OD@405 nm

## Pin1^W34A: Pin1 with single Ala point mutation of Trp-34 in the WW-domain
WFYpSPFLE (Pintide)
  Kd for Pintide (μM): N.B.
WFYpSPFLE (Pintide); [5]
  Kd: 14 µM
[1]
  Phosphoprotein binding activity: −
  binding to mitotic phosphoproteins / MPM-2 antigens (in words): completely abolished
Peptide substrate
  PPlase Activity (%): 94%
[2]
  complementation of temperature-sensitive ptf1 phenotype (in words): abolish the ability of Pin1 to support cell growth
